From patent US20230087361A1, “USE OF DIANTHRONE COMPOUND IN PREPARATION OF MEDICAMENT FOR PREVENTION AND/OR TREATMENT OF MYOCARDIAL ISCHEMIC DISEASE AND RELATED DISEASE THEREOF” (National Institutes for Food and Drug Control, priority 2021, published 2023) come the findings set out here.

Assay [1] deals with mice with ISO-induced myocardial ischemia. Put plainly: Serum myocardial enzyme CK-MB (ELISA) in mice with ISO-induced myocardial ischemia. It counts as in vivo, Kunming mice. Conditions: ISO model mice; dianthrone 10 mg/kg intragastric or diltiazem 20 mg/kg intraperitoneal once a day for 10 days; serum 2 h after final ISO; n=7-10. As for the experimental part:
(§1) Male Kunming mice were acclimatized and randomly divided into four groups: a blank control group, an ISO model group, an ISO+diltiazem 20 mg.kg^1 positive control group, and an ISO+dianthrone 10 mgkgi group. Mice in the dianthrone group were intragastrically given the corresponding dose of dianthrone once a day, those in the diltiazem group were intraperitoneally given once a day, and those in the blank control group and the model group were given the same dose of solvent (both of which were 10 mL. kg) for 10 consecutive days. On day 4 of administration, the mice in each group were injected subcutaneously with 40 mg.kg^1 ISO once; the concentration of ISO subcutaneous injection was adjusted to 20 mg.kg^- on days 5 to 10 of administration. All mice were modeled at 2 h after administration. On the final day, the animals were treated at 2 h after ISO administration and modeling. Animal weights were recorded during the experiment. […]
(§2) Assay for biomarker for myocardial injury and myocardial enzyme: The blood was drawn from the orbit of the mouse, let stand at room temperature for 2 h, and centrifuged at 3,500 rpm for 20 min to separate the serum. The serum levels of CK-MB and cTn-T were detected according to the ELISA kit instructions.
On the technique in general: ELISA stands for enzyme-linked immunosorbent assay.

Assay [2] has the same test system. In words: Serum biomarker for myocardial injury cTn-T (ELISA) in mice with ISO-induced myocardial ischemia. The conditions noted are these: ISO model mice; dianthrone 10 mg/kg intragastric or diltiazem 20 mg/kg intraperitoneal once a day for 10 days; serum 2 h after final ISO; n=7-10. It counts as in vivo, Kunming mice. As for the experimental part:
as §1, §2

As to `COc1ccc([C@@H]2Sc3ccccc3N(CCN(C)C)C(=O)[C@@H]2OC(C)=O)cc1` [Diltiazem, diltiazem], the “CK-MB (serum)” value in assay [1] came to 7.11 ± 1.63 ng/mL. Besides, the “cTn-T (serum)” value in assay [2] came to 273.93 ± 36.17 ng/L.
